In brackets after ≈: the same amount, converted by molar mass. Read-outs that look alike come from different tables or passages of the source.
How the values were obtained:
[1] = test system: Staphylococcus aureus MRSA (COL); assay: Broth microdilution MIC assay, Staphylococcus aureus MRSA (COL); format: cell-based; settings: for Antibacterial activity Staphylococcus aureus (MRSA): MIC class score, MIC100, broth microdilution, COL strain
[2] = test system: vancomycin-resistant Enterococcus faecium (ATCC51559); assay: microbe, parasite or virus in culture; format: cell-based
[3] = test system: Streptococcus pneumoniae (Chester, ATCC49619); assay: Broth microdilution MIC assay, Streptococcus pneumoniae; format: cell-based; settings: for MIC: Streptococcus pneumoniae, ATCC49619, read-out: Antibacterial activity, SP (Streptococcus pneumoniae), MIC class; for Antibacterial activity Streptococcus pneumoniae: MIC class score, MIC100, broth microdilution
[4] = test system: Staphylococcus epidermidis (PCI 1200, ATCC12228); assay: Broth microdilution MIC assay, Staphylococcus epidermidis; format: cell-based; settings: read-out: Antibacterial activity, SE (Staphylococcus epidermidis), MIC class
[5] = test system: Enterococcus faecalis (ATCC29212); assay: Broth microdilution MIC assay, Enterococcus faecalis; format: cell-based; settings: read-out: Antibacterial activity, EFs (Enterococcus faecalis), MIC class
[6] = test system: vancomycin-resistant Enterococcus faecalis (ATCC51575); assay: microbe, parasite or virus in culture; format: cell-based
[7] = test system: Enterococcus faecium (AGR15, ATCCBAA-2127); assay: Broth microdilution MIC assay, Enterococcus faecium; format: cell-based; settings: ATCCBAA2127, read-out: Antibacterial activity, EFm (Enterococcus faecium), MIC class
[8] = test system: Mycobacterium smegmatis (mc(2)155); assay: Broth microdilution MIC assay, Mycobacterium smegmatis
[9] = test system: MRSA (COL) resistant to triclosan; assay: Broth microdilution MIC assay, triclosan-resistant MRSA; settings: Staphylococcus aureus, read-out: Antibacterial activity, MRSA strains with additional resistance, T (triclosan), MIC class
[10] = test system: linezolid-resistant Staphylococcus aureus (from MRSA COL); assay: Broth microdilution MIC assay, linezolid-resistant MRSA; format: cell-based; settings: 24 h, read-out: Antibacterial activity, MRSA strains with additional resistance, L (linezolid), MIC class
[11] = test system: Staphylococcus aureus MSSA (Newman); assay: Broth microdilution MIC assay, Staphylococcus aureus MSSA (Newman); format: cell-based; settings: for Antibacterial activity Staphylococcus aureus (MSSA): MIC class score, MIC100, broth microdilution, Newman strain
[12] = test system: daptomycin-resistant Staphylococcus aureus (from MRSA COL); assay: Broth microdilution MIC assay, daptomycin-resistant MRSA; format: cell-based; settings: 24 h, read-out: Antibacterial activity, MRSA strains with additional resistance, D (daptomycin), MIC class
[13] = test system: platensimycin-resistant Staphylococcus aureus (from MRSA COL); assay: Broth microdilution MIC assay, platensimycin-resistant MRSA; format: cell-based; settings: 24 h, read-out: Antibacterial activity, MRSA strains with additional resistance, P (platensimycin), MIC class
[14] = test system: vancomycin-resistant Staphylococcus aureus (from MRSA COL); assay: Broth microdilution MIC assay, vancomycin-resistant MRSA; format: cell-based; settings: 24 h, read-out: Antibacterial activity, MRSA strains with additional resistance, V (vancomycin), MIC class
[15] = ATCC51559, vancomycin-resistant Enterococcus faecium, read-out: Antibacterial activity, VREFm (vancomycin-resistant EFm), MIC class
[16] = ATCC51575, vancomycin-resistant Enterococcus faecalis, read-out: Antibacterial activity, VREFs (vancomycin-resistant EFs), MIC class
[17] = Enterococcus faecium, ATCC51559, read-out: Antibacterial activity, VREFm (vancomycin-resistant EFm), MIC class

| SMILES | MIC [2, 15] | MIC [3] | MIC [4] | MIC [5] | MIC [6, 16] | MIC [7] | Antibacterial activity Streptococcus pneumoniae [3] | MIC [10] | MIC [12] | further results |
| --- | --- | --- | --- | --- | --- | --- | --- | --- | --- | --- |
| Cc1nc(-c2ccc(-c3ccc(Cl)c(OC(F)(F)F)c3)o2)[nH]c1-c1ccc(Cl)cc1 [compound 44] | 11 to 20 µg/mL (≈ 24.3 to 44.1 µM) | < 1 µg/mL | 11 to 20 µg/mL (≈ 24.3 to 44.1 µM) | 20 to 50 µg/mL (≈ 44.1 to 110 µM) | 11 to 20 µg/mL (≈ 24.3 to 44.1 µM) | 20 to 50 µg/mL (≈ 44.1 to 110 µM) |  |  |  | Antibacterial activity Staphylococcus aureus (MRSA) [1]: 2 (MIC100 of 11-20 μg/ml) |
| Cc1[nH]c(-c2ccn(-c3ccccc3C(F)(F)F)c2)nc1-c1ccccc1 [compound 33] |  | 6 to 10 µg/mL (≈ 16.3 to 27.2 µM) | 11 to 20 µg/mL (≈ 29.9 to 54.4 µM) |  |  |  |  |  |  |  |
| Cc1nc(-c2ccc(-c3cccc(OC(F)(F)F)c3)o2)[nH]c1-c1ccc(F)cc1 [compound 37] | 20 to 50 µg/mL (≈ 49.7 to 124 µM) | < 1 µg/mL |  | 20 to 50 µg/mL (≈ 49.7 to 124 µM) | 20 to 50 µg/mL (≈ 49.7 to 124 µM) |  |  |  |  | Antibacterial activity, MS (Mycobacterium smegmatis), MIC class [8]: 2 (MIC100 of 11-20 μg/ml) |
| Cc1[nH]c(-c2ccc(-c3ccccc3C(F)(F)F)o2)nc1-c1ccccc1 [compound 17] |  | 2 to 5 µg/mL (≈ 5.43 to 13.6 µM) |  |  |  | 20 to 50 µg/mL (≈ 54.3 to 136 µM) | 3 (MIC100 of 2-5 μg/ml) |  |  |  |
| FC(F)(F)Oc1ccccc1-c1ccc(-c2nc(-c3ccccc3Cl)c[nH]2)o1 [compound 67] |  | 2 to 5 µg/mL (≈ 4.94 to 12.4 µM) | 11 to 20 µg/mL (≈ 27.2 to 49.4 µM) |  |  |  |  |  |  |  |
| Cc1[nH]c(-c2ccc(-c3ccc(C(F)(F)F)c(Cl)c3)o2)nc1-c1ccc(F)cc1 [compound 49] |  | 2 to 5 µg/mL (≈ 4.75 to 11.9 µM) | 11 to 20 µg/mL (≈ 26.1 to 47.5 µM) | 11 to 20 µg/mL (≈ 26.1 to 47.5 µM) |  | 20 to 50 µg/mL (≈ 47.5 to 119 µM) | 3 (MIC100 of 2-5 μg/ml) | 11 to 20 µg/mL (≈ 26.1 to 47.5 µM) | 1 to 3 µg/mL (≈ 2.38 to 7.13 µM) | Antibacterial activity Staphylococcus aureus (MRSA) [1]: 2 (MIC100 of 11-20 μg/ml); MIC [2, 17]: 20 to 50 µg/mL (≈ 47.5 to 119 µM); MIC [9]: 1 to 3 µg/mL (≈ 2.38 to 7.13 µM); MIC ([6]; Enterococcus faecalis, ATCC51575, read-out: Antibacterial activity, VREFs (vancomycin-resistant EFs), MIC class): 20 to 50 µg/mL (≈ 47.5 to 119 µM); Antibacterial activity Staphylococcus aureus (MSSA) [11]: 3 (MIC100 of 3-10 μg/ml) |
| Cc1[nH]c(-c2ccc(-c3ccccc3OC(F)(F)F)o2)nc1-c1ccc(F)cc1 [compound 23, 4-(4-Fluoro-phenyl)-5-methyl-2-[5-(2-trifluoromethoxy-phenyl)-furan-2-yl]-1H-imidazole] | 20 to 50 µg/mL (≈ 49.7 to 124 µM) |  |  | 20 to 50 µg/mL (≈ 49.7 to 124 µM) | 20 to 50 µg/mL (≈ 49.7 to 124 µM) | 20 to 50 µg/mL (≈ 49.7 to 124 µM) |  |  |  |  |
| FC(F)(F)Oc1ccccc1-c1ccc(-c2nc(-c3ccc(Cl)cc3Cl)c[nH]2)o1 [compound 68] |  | 6 to 10 µg/mL (≈ 13.7 to 22.8 µM) |  |  |  |  |  |  | 1 to 3 µg/mL (≈ 2.28 to 6.83 µM) | Antibacterial activity Staphylococcus aureus (MSSA) [11]: 2 (MIC100 of 11-20 μg/ml); MIC ([11]; Staphylococcus aureus, read-out: Antibacterial activity, MSSA (Staphylococcus aureus MSSA), MIC class): 11 to 20 µg/mL (≈ 25 to 45.5 µM); MIC [13]: 20 to 50 µg/mL (≈ 45.5 to 114 µM) |
| Cc1[nH]c(-c2ccc(-c3ccccc3OC(F)(F)F)o2)nc1-c1ccccc1 [compound 18] | 20 to 50 µg/mL (≈ 52 to 130 µM) | 2 to 5 µg/mL (≈ 5.2 to 13 µM) |  | 20 to 50 µg/mL (≈ 52 to 130 µM) | 20 to 50 µg/mL (≈ 52 to 130 µM) | 20 to 50 µg/mL (≈ 52 to 130 µM) | 3 (MIC100 of 2-5 μg/ml) |  |  |  |
| Cc1nc(-c2ccc(-c3ccc(C(F)(F)F)cc3)o2)[nH]c1-c1ccccc1 [compound 45] |  | < 1 µg/mL |  |  | 20 to 50 µg/mL (≈ 54.3 to 136 µM) |  |  | 1 to 3 µg/mL (≈ 2.71 to 8.14 µM) | 1 to 3 µg/mL (≈ 2.71 to 8.14 µM) | MIC [14]: 1 to 3 µg/mL (≈ 2.71 to 8.14 µM) |
| Cc1nc(-c2ccc(-c3ccccc3OC(F)(F)F)o2)[nH]c1-c1ccccc1Cl [compound 19] |  | < 1 µg/mL |  |  |  |  |  | 3 to 10 µg/mL (≈ 7.16 to 23.9 µM) | 3 to 10 µg/mL (≈ 7.16 to 23.9 µM) | MIC [2, 17]: 20 to 50 µg/mL (≈ 47.8 to 119 µM); Antibacterial activity, MS (Mycobacterium smegmatis), MIC class [8]: 2 (MIC100 of 11-20 μg/ml) |
| Cc1nc(-c2ccc(-c3ccccc3OC(F)(F)F)o2)[nH]c1-c1cccc(Cl)c1 [compound 21] | 20 to 50 µg/mL (≈ 47.8 to 119 µM) |  |  | 20 to 50 µg/mL (≈ 47.8 to 119 µM) | 20 to 50 µg/mL (≈ 47.8 to 119 µM) |  |  |  |  | Antibacterial activity Staphylococcus aureus (MRSA) [1]: 3 (MIC100 of 3-10 μg/ml); MIC ([1]; Staphylococcus aureus, MRSA, read-out: Antibacterial activity, MRSA (Staphylococcus aureus MRSA), MIC class): 3 to 10 µg/mL (≈ 7.16 to 23.9 µM); MIC [9]: 3 to 10 µg/mL (≈ 7.16 to 23.9 µM); Antibacterial activity Staphylococcus aureus (MSSA) [11]: 3 (MIC100 of 3-10 μg/ml); MIC [13]: 3 to 10 µg/mL (≈ 7.16 to 23.9 µM) |
| Cc1[nH]c(-c2ccc(-c3cccc(F)c3C)o2)nc1-c1ccccc1 [compound 60] |  |  |  | 20 to 50 µg/mL (≈ 60.2 to 150 µM) |  |  | 3 (MIC100 of 2-5 μg/ml) | 1 to 3 µg/mL (≈ 3.01 to 9.03 µM) | 1 to 3 µg/mL (≈ 3.01 to 9.03 µM) | Antibacterial activity, MS (Mycobacterium smegmatis), MIC class [8]: 2 (MIC100 of 11-20 μg/ml) |

Reference: patent US10456379B2, “Imidazole-based antimicrobial agents” (priority 2014, dated 2019)
